Molecules are shown by their SMILES.

The target in test [1] is T1, Progesterone receptor (Homo sapiens, UniProt P06401).
T1 sequence (P06401 whole entry): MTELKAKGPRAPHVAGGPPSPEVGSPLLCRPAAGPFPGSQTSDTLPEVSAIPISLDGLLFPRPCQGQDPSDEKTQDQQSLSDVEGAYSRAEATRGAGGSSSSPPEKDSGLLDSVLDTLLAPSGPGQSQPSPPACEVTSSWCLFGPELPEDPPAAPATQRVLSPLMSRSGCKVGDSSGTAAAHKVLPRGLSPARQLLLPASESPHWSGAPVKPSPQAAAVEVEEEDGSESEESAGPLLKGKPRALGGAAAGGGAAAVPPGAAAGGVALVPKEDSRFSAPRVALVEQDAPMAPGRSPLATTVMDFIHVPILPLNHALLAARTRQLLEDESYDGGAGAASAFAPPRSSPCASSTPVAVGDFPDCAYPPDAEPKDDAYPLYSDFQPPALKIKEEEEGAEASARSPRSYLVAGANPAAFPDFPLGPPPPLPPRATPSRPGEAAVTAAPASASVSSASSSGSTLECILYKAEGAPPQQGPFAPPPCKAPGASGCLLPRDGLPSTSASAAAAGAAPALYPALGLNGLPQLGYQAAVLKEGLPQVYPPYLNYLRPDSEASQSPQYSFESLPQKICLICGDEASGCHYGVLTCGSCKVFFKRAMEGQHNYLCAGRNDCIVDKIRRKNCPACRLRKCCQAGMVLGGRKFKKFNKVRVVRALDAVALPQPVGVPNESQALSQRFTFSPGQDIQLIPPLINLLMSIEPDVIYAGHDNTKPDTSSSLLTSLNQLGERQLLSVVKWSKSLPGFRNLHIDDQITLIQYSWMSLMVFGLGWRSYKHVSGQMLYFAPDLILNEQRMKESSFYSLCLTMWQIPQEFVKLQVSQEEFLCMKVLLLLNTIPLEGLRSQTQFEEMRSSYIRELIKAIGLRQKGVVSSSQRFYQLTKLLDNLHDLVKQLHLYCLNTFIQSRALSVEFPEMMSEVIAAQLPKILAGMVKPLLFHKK
Briefly: Activation of progesterone receptor in human T47D cells at 1 uM after 20 hrs by PRE-tagged luciferase reporter gene assay. It counts as cell-based. In general terms: A reporter such as luciferase makes a cellular process visible.

The target of test [2] is T2, Progesterone receptor (Homo sapiens) (UniProt P06401).
T2 sequence (whole entry): T1 sequence (P06401 whole entry)
Briefly: Activation of progesterone receptor in human T47D cells after 20 hrs by PRE-tagged luciferase reporter gene assay relative to control. It counts as cell-based.

As to `CC1(C)[C@@H](O)CC[C@]2(C)[C@@]3(C)c4[nH]c5ccccc5c4C[C@@H]3CC[C@@]12O`, in test [1], the EC50 entry was “Not Active”. On to `CC1(C)C(=O)C=C[C@]2(C)[C@@]3(C)c4[nH]c5ccccc5c4C[C@@H]3CC[C@@]12O`, for which, in test [2], the Efficacy is < 1%. Same read-out and setting: in the case of `CO[C@H]1[C@H](O)[C@@H](O)[C@H](Oc2ccc3c4c([nH]c3c2)[C@@]2(C)[C@@H](CC[C@H]3C(C)(C)C(=O)C=C[C@@]32C)C4)O[C@@H]1CO` it was < 1%.

Values taken from ChEMBL document CHEMBL1154793, “The lecanindoles, nonsteroidal progestins from the terrestrial fungus Verticillium lecanii 6144” (J Nat Prod, 2009).
